The values below come from patent US12202818B2, “Compounds and methods for CD73 modulation and indications therefor” (Opna Bio SA, priority 2020, dated 2025).

The target of test [1] is T1, Human CD73 (amino acid residues 27-549) (Homo sapiens, UniProt P21589).
T1 construct: Human CD73 (amino acid residues 27-549); His tag (N); made in house; host or cells: E. coli
T1 sequence (P21589 27-549): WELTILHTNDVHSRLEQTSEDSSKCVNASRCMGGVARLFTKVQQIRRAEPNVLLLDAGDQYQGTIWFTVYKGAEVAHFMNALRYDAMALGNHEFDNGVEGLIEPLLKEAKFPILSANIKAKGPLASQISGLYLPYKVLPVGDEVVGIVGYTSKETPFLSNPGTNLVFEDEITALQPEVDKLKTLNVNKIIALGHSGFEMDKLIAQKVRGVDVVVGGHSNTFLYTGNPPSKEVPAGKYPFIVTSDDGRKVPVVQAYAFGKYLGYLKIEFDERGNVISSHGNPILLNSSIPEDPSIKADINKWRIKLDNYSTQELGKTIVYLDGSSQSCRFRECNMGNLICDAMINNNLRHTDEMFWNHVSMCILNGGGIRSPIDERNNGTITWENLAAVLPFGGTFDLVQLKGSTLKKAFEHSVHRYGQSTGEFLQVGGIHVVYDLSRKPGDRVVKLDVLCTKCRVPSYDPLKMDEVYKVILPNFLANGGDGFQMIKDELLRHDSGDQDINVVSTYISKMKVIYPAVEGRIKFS
Kind of test: CD73 enzymatic assay (luciferase-based indirect assay, CellTiter-Glo). It counts as biochemical. Particulars: 0.4 nM CD73, 150 μM AMP, 1 hour at room temperature. Put shortly: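 Luciferase-coupled readout: AMP left after CD73 turnover suppresses CellTiter-Glo signal (1 μM ATP final, 30 min RT). Reaction beforehand: 150 μM AMP, 0.4 nM E. coli-made His-tagged CD73 residues 27-549, test compound, HEPES pH 7.4 with Tween-20, 1 h RT. % inhibition fitted nonlinearly for IC50.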
In general terms: In ATP-based viability assays light output follows the ATP content of the culture.

The target of test [2] is T2, human CD73 (Homo sapiens, UniProt P21589).
T2 construct: expressed in transfected cells
T2 sequence (P21589 27-549): T1 sequence (P21589 27-549)
The experiment in a line: Inhibitor activity against CD73 in cell based assay (CD73 expressing CHO-K1 cells). Particulars: CHO-K1 cells expressing human CD73, 150 μM AMP, 4 hours of incubation; read-out: CHO-K1 CELL_VARIANT: CD73 IC50. In a few lines:
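AMP (150 μM) was added alongside 8 titrated compound doses (maximum 10 μM, 1:3 steps) to CHO-K1 cells stably expressing human CD73. After 4 h, supernatant AMP was measured indirectly with CellTiter-Glo 2.0 plus 1 μM ATP (30 min, RT). % inhibition versus high and low controls was fitted nonlinearly for IC50.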

By IC50 is commonly meant the concentration at which inhibition is half-maximal.

The structures appear in SMILES notation.

In the case of `Cc1noc(C)c1-c1ccnc(O[C@@H]2CCN(c3cn[nH]c(=O)c3C#N)C2)c1` [P-0063, (R)-5-(3-((4-(3,5-dimethylisoxazol-4-yl)pyridin-2-yl)oxy)pyrrolidin-1-yl)-3-oxo-2,3-dihydropyridazine-4-carbonitrile], the 50% inhibitory concentration (IC50) in test [1] and in test [2] was 0.001 to 10 µM throughout.
`O=c1[nH]ncc(N2CC[C@@H](Oc3cc(-c4ccc(S(=O)(=O)N5CCCC5)cc4)c(Cl)cn3)C2)c1Cl` [P-0248, (R)-4-chloro-5-(3-((5-chloro-4-(4-(pyrrolidin-1-ylsulfonyl)phenyl)pyridin-2-yl)oxy)pyrrolidin-1-yl)pyridazin-3(2H)-one]: the IC50 in test [1] and in test [2] was 0.001 to 10 µM throughout.
Consider `CC1CCCN1c1ccnc(O[C@@H]2CCN(c3cn[nH]c(=O)c3Cl)C2)c1` (stereo partly drawn) [P-0093, 4-chloro-5-((3R)-3-((4-(2-methylpyrrolidin-1-yl)pyridin-2-yl)oxy)pyrrolidin-1-yl)pyridazin-3(2H)-one], for which the half-maximal inhibitory concentration (IC50) in test [1] and in test [2] was 0.001 to 10 µM each time.
Regarding `O=c1[nH]ncc(N2CC[C@@H](Oc3cc(-c4ccc(NS(=O)(=O)C5CC5)cc4)ccn3)C2)c1Cl` [P-0245, (R)-N-(4-(2-((1-(5-chloro-6-oxo-1,6-dihydropyridazin-4-yl)pyrrolidin-3-yl)oxy)pyridin-4-yl)phenyl)cyclopropanesulfon-amide], the IC50 in test [1] and in test [2] was 0.001 to 10 µM throughout.
Take `Cc1nn(CC2CC(F)(F)C2)c(C)c1-c1cc(F)nc(O[C@@H]2CCN(c3cn[nH]c(=O)c3Cl)C2)c1` [P-0187, (R)-4-chloro-5-(3-((4-(1-((3,3-difluorocyclobutyl)methyl)-3,5-dimethyl-1H-pyrazol-4-yl)-6-fluoropyridin-2-yl)oxy)pyrrolidin-1-yl)pyridazin-3(2H)-one]: the half-inhibitory concentration (IC50) in test [1] and in test [2] was 0.001 to 10 µM in each case.
As for `Cn1cncc1-c1cc(F)nc(O[C@@H]2CCN(c3cn[nH]c(=O)c3Cl)C2)c1` [P-0173, (R)-4-chloro-5-(3-((6-fluoro-4-(1-methyl-1H-imidazol-5-yl)pyridin-2-yl)oxy)pyrrolidin-1-yl)pyridazin-3(2H)-one], the IC50 in test [1] and in test [2] was 0.001 to 10 µM each time.
`Cc1nn(CC(C)(C)O)c(C)c1-c1cc(F)nc(O[C@@H]2CCN(c3cn[nH]c(=O)c3Cl)C2)c1` [P-0186, (R)-4-chloro-5-(3-((6-fluoro-4-(1-(2-hydroxy-2-methylpropyl)-3,5-dimethyl-1H-pyrazol-4-yl)pyridin-2-yl)oxy)pyrrolidin-1-yl)pyridazin-3(2H)-one]: the IC50 in test [1] and in test [2] was 0.001 to 10 µM in each case.
Take `Cc1nn(CC2(C)COC2)c(C)c1-c1cc(F)nc(O[C@@H]2CCN(c3cn[nH]c(=O)c3Cl)C2)c1` [P-0184, (R)-4-chloro-5-(3-((4-(3,5-dimethyl-1-((3-methyloxetan-3-yl)methyl)-1H-pyrazol-4-yl)-6-fluoropyridin-2-yl)oxy)pyrrolidin-1-yl)pyridazin-3(2H)-one]: the IC50 in test [1] and in test [2] was 0.001 to 10 µM each time.
Take `O=c1[nH]ncc(N2CC[C@@H](Oc3cc(C4CCNC4)ccn3)C2)c1Cl` (stereo partly drawn) [P-0018, 4-chloro-5-((3R)-3-((4-(pyrrolidin-3-yl)pyridin-2-yl)oxy)pyrrolidin-1-yl)pyridazin-3(2H)-one]: the IC50 in test [1] and in test [2] was 0.001 to 10 µM each time.
Consider `N#CC1CC2CCC(C1)N2c1ccnc(O[C@@H]2CCN(c3cn[nH]c(=O)c3Cl)C2)c1` (stereo partly drawn) [P-0049, 8-(2-(((R)-1-(5-chloro-6-oxo-1,6-dihydropyridazin-4-yl)pyrrolidin-3-yl)oxy)pyridin-4-yl)-8-azabicyclo[3.2.1]octane-3-carbonitrile], for which the IC50 in test [1] and in test [2] was 0.001 to 10 µM throughout.
Take `Cc1nn(CC2CC(C#N)C2)c(C)c1-c1ccnc(O[C@@H]2CCN(c3cn[nH]c(=O)c3Cl)C2)c1` (stereo partly drawn) [P-0057, (R)-3-((4-(2-((1-(5-chloro-6-oxo-1,6-dihydropyridazin-4-yl)pyrrolidin-3-yl)oxy)pyridin-4-yl)-3,5-dimethyl-1H-pyrazol-1-yl)methyl)cyclobutane-1-carbonitrile]: the IC50 in test [1] and in test [2] was 0.001 to 10 µM throughout.
Regarding `Cc1nn(C)c(C)c1-c1cc(O[C@H]2CN(c3cnn(CCO)c(=O)c3Cl)C[C@@H]2F)ncn1` [P-0144, 4-chloro-5-((3S,4S)-3-fluoro-4-((6-(1,3,5-trimethyl-1H-pyrazol-4-yl)pyrimidin-4-yl)oxy)pyrrolidin-1-yl)-2-(2-hydroxyethyl)pyridazin-3(2H)-one], the IC50 in test [1] and in test [2] was 0.001 to 10 µM each time.
As for `Cc1cc(NS(=O)(=O)C2CC2)ccc1-c1ccnc(O[C@@H]2CCN(c3cn[nH]c(=O)c3Cl)C2)c1` [P-0210, (R)-N-(4-(2-((1-(5-chloro-6-oxo-1,6-dihydropyridazin-4-yl)pyrrolidin-3-yl)oxy)pyridin-4-yl)-3-methylphenyl)cyclopropane-sulfonamide], the IC50 in test [1] and in test [2] was 0.001 to 10 µM throughout.
For the molecule `CNS(=O)(=O)c1ccc(-c2ccnc(O[C@@H]3CCN(c4cn[nH]c(=O)c4Cl)C3)c2)cc1` [P-0244, (R)-4-(2-((1-(5-chloro-6-oxo-1,6-dihydropyridazin-4-yl)pyrrolidin-3-yl)oxy)pyridin-4-yl)-N-methylbenzenesulfonamide], the IC50 in test [1] and in test [2] was 0.001 to 10 µM in each case.
In the case of `Cc1nn(C(CO)CI)c(C)c1-c1ccnc(O[C@@H]2CCN(c3cn[nH]c(=O)c3Cl)C2)c1` (stereo partly drawn) [P-0088, 4-chloro-5-((3R)-3-((4-(1-(1-hydroxy-3-iodopropan-2-yl)-3,5-dimethyl-1H-pyrazol-4-yl)pyridin-2-yl)oxy)pyrrolidin-1-yl)pyridazin-3(2H)-one], the IC50 in test [1] and in test [2] was 0.001 to 10 µM in each case.
Regarding `COC(=O)C1C2CCC1CN(c1ccnc(O[C@@H]3CCN(c4cn[nH]c(=O)c4Cl)C3)c1)C2` (stereo partly drawn) [P-0028, methyl 3-(2-(((R)-1-(5-chloro-6-oxo-1,6-dihydropyridazin-4-yl)pyrrolidin-3-yl)oxy)pyridin-4-yl)-3-azabicyclo[3.2.1]octane-8-carboxylate], the IC50 in test [1] and in test [2] was 0.001 to 10 µM throughout.
In the case of `O=c1[nH]ncc(N2CC[C@@H](Oc3cc(-c4c(F)cc(S(=O)(=O)NC5CC5)cc4F)ccn3)C2)c1Cl` [P-0207, (R)-4-(2-((1-(5-chloro-6-oxo-1,6-dihydropyridazin-4-yl)pyrrolidin-3-yl)oxy)pyridin-4-yl)-N-cyclopropyl-3,5-difluorobenzenesulfonamide], the IC50 in test [1] and in test [2] was 0.001 to 10 µM each time.
As to `Cc1nn(C)c(C)c1-c1cc(O[C@@H]2CCN(c3cnn(CCO)c(=O)c3Cl)C2)ncn1` [P-0128, (R)-4-chloro-2-(2-hydroxyethyl)-5-(3-((6-(1,3,5-trimethyl-1H-pyrazol-4-yl)pyrimidin-4-yl)oxy)pyrrolidin-1-yl)pyridazin-3(2H)-one], the IC50 in test [1] and in test [2] was 0.001 to 10 µM each time.
`Cc1nn(C(CO)CCl)c(C)c1-c1ccnc(O[C@@H]2CCN(c3cn[nH]c(=O)c3Cl)C2)c1` (stereo partly drawn) [P-0069, 4-chloro-5-((3R)-3-((4-(1-(1-chloro-3-hydroxypropan-2-yl)-3,5-dimethyl-1H-pyrazol-4-yl)pyridin-2-yl)oxy)pyrrolidin-1-yl)pyridazin-3(2H)-one]: the half-inhibitory concentration (IC50) in test [1] and in test [2] was 0.001 to 10 µM throughout.
